Patent US8383183B2, “Sweetness enhancers, sweetness enhanced sweetener compositions, methods for their formulation, and uses” (The Coca-Cola Company, priority 2007, dated 2013)
Several values for one entry are separate records, joined by “and”; a condition that tells them apart may be missing. Identical values can stand only once. Each block holds one compound with its values, some of them ahead of it.

What was measured:
[1] = Rate of dissolution in H2O at 25° C.; assay type: physicochemical
[2] = test system: sweetness intensity of 6% sucrose; assay: Sulfamate & 6% sucrose Sweetness Enhancement Test (sensory rating against 6-10% sucrose references); assay type: in vivo; design: key to Sweetness Intensity Rating (6-10), subject #1 / Sweetness Intensity Rating (6-10), subject #2 / Sweetness Intensity Rating (6-10), subject #3 / Sweetness Intensity Rating (6-10), subject #4 / Sweetness Intensity Rating (6-10), subject #5 / Average Intensity Rating: sweetness rated 6-10 relative to 6-10% sucrose references
Method: Sensory studies that were carried out on the N-substituted sulfamic acid salts included 1) preliminary sulfamate analogue Sweetness Detection Threshold (SDT) estimation, 2) refined Sweetness Detection Threshold (SDT) estimation, 3) N-substituted sulfamic acid salts mixed with 6% sucrose Sweetness Enhancement Test and 4) repeat of step 3. Reference samples were prepared at 6, 7, 8, 9 and 10% sucrose (w/v). […] Each of the ten samples was then individually rated for sweetness intensity on a scale of 6-10 relative to the 6-10% sucrose references.

sweet taste [3] = assay: Preliminary sulfamate analogue Sweetness Detection Threshold (SDT) estimation, sip-and-spit, one experienced subject; assay type: in vivo; settings: for sweet taste exhibited: 15.6-1,000 ppm solutions in water, one subject
Method: Sensory studies that were carried out on the N-substituted sulfamic acid salts included 1) preliminary sulfamate analogue Sweetness Detection Threshold (SDT) estimation, 2) refined Sweetness Detection Threshold (SDT) estimation, 3) N-substituted sulfamic acid salts mixed with 6% sucrose Sweetness Enhancement Test and 4) repeat of step 3. A 1,000 ppm sulfamate analogue solution was prepared by dissolution of 20 mg sulfamate analogue in 20 mL purified water. An aliquot (10 mL) of this solution was diluted to 20 mL with water to obtain a 500 ppm solution. Additional 1:1 serial dilutions step were used to obtain 250, 125, 62.5, 31.2 and 15.6 ppm solutions. These solutions were then tasted in ascending order of concentration by one experienced subject by using a sip-and-spit protocol. The subject's estimated SDT was determined to be at the lowest concentration at which sweetness was definitely observed.

sweet taste [4] = assay: N-alkyl sulfamate SDT estimation, sip-and-spit, 5 experienced subjects; assay type: in vivo
Method: A 250 ppm solution of 4 was prepared by dissolution of 50 mg sulfamate in 200 mL purified water. An aliquot (100 mL) of this solution then was diluted to 200 mL with water to obtain a 125 ppm solution. Additional 1:1 serial dilution steps were used to prepare 62.5, 31.2 and 15.6 ppm solutions. These solutions then were tasted in ascending order of concentration by 5 experienced subjects by a sip-and-spit protocol.

[5] = 125 ppm in 6% sucrose, single test sample, listed as NS

Rate of dissolution in H2O at 25° C. ([1]; in 60 minutes): Very low (<0.2%
Compound: C=C1C[C@@]23CC[C@H]4[C@@](C)(CCC[C@@]4(C)C(=O)O[C@@H]4O[C@H](CO)[C@@H](O)[C@H](O)[C@H]4O)[C@@H]2CC[C@]1(O[C@@H]1O[C@H](CO)[C@@H](O)[C@H](O[C@@H]2O[C@H](CO)[C@@H](O)[C@H](O)[C@H]2O)[C@H]1O[C@@H]1O[C@H](CO)[C@@H](O)[C@H](O)[C@H]1O)C3 [Form 1, rebaudioside A]

Rate of dissolution in H2O at 25° C. ([1]; in 5 minutes): Intermediate (<30%
Compound: C=C1C[C@@]23CC[C@H]4[C@@](C)(CCC[C@@]4(C)C(=O)O[C@@H]4O[C@H](CO)[C@@H](O)[C@H](O)[C@H]4O)[C@@H]2CC[C@]1(O[C@@H]1O[C@H](CO)[C@@H](O)[C@H](O[C@@H]2O[C@H](CO)[C@@H](O)[C@H](O)[C@H]2O)[C@H]1O[C@@H]1O[C@H](CO)[C@@H](O)[C@H](O)[C@H]1O)C3 [Form 2, rebaudioside A]

Rate of dissolution in H2O at 25° C. ([1]; in 5 minutes): High (>30%
Compound: C=C1C[C@@]23CC[C@H]4[C@@](C)(CCC[C@@]4(C)C(=O)O[C@@H]4O[C@H](CO)[C@@H](O)[C@H](O)[C@H]4O)[C@@H]2CC[C@]1(O[C@@H]1O[C@H](CO)[C@@H](O)[C@H](O[C@@H]2O[C@H](CO)[C@@H](O)[C@H](O)[C@H]2O)[C@H]1O[C@@H]1O[C@H](CO)[C@@H](O)[C@H](O)[C@H]1O)C3 [Form 3, rebaudioside A]

Rate of dissolution in H2O at 25° C. ([1]; in 5 minutes): High (>35.0%
Compound: C=C1C[C@@]23CC[C@H]4[C@@](C)(CCC[C@@]4(C)C(=O)O[C@@H]4O[C@H](CO)[C@@H](O)[C@H](O)[C@H]4O)[C@@H]2CC[C@]1(O[C@@H]1O[C@H](CO)[C@@H](O)[C@H](O[C@@H]2O[C@H](CO)[C@@H](O)[C@H](O)[C@H]2O)[C@H]1O[C@@H]1O[C@H](CO)[C@@H](O)[C@H](O)[C@H]1O)C3 [Form 4, rebaudioside A]

Compound: CC1CCCCC1NS(=O)(=O)[O-].[Na+] (stereo not shown) [sulfamate 2, sodium 1H-2-methyl cyclohexyl sulfamate]
sweetness intensity of a 6.0% sugar solution increased to the equivalent of ([2]; about 430 ppm in 6.0% sugar solution): about 7.3 % sugar solution | sweet taste exhibited (sweet taste [3]): exhibit sweet taste | off-taste (sweet taste [3]; 1,000 ppm in water): some bitterness off-taste problems | taste (sweet taste [3]; 1,000 ppm in water): slight sweet taste | sweet taste of the sulfamate by itself (sweet taste [3]; no sugar): not sweet by itself

Compound: CC(C)(C)CCNS(=O)(=O)[O-].[Na+] [sulfamate 3A, sodium 1H-3,3-dimethyl butyl sulfamate]
sweetness intensity of a 6.0% sugar solution increased to the equivalent of ([2]; about 406 ppm in 6.0% sugar solution): about 7.0 % sugar solution | sweet taste of the sulfamate by itself (sweet taste [3]; no sugar): not sweet by itself

Compound: CC(C)(C)CCNS(=O)(=O)[O-].[K+] [sulfamate 3B, potassium 1H-3,3-dimethyl butyl sulfamate]
sweetness intensity of a 6.0% sugar solution increased to the equivalent of ([2]; about 200 ppm in 6.0% sugar solution): about 7.0 % sugar solution | sweet taste of the sulfamate by itself (sweet taste [3]; in amounts up to 1000 ppm): not sweet by itself

Compound: O=S(=O)([O-])NC1CC2CCC1C2.[Na+] (stereo not shown) [sulfamate 4, sodium bicycle[2.2.1]heptan-2-yl sulfamate]
Average Intensity Rating ([2]; 125 ppm in 6% sucrose, single test sample, mean of 5 subjects, listed as NS): 8.2 and 8.4 and 7.2 and 8.6 | Sweetness Intensity Rating (6-10), subject #1 [2, 5]: 8 and 9 and 7 | Sweetness Intensity Rating (6-10), subject #2 [2, 5]: 8 and 9 and 7 and 10 | Sweetness Intensity Rating (6-10), subject #3 [2, 5]: 8 and 7 | Sweetness Intensity Rating (6-10), subject #4 [2, 5]: 9 and 7 | Sweetness Intensity Rating (6-10), subject #5 [2, 5]: 8 and 7 | average sweetness intensity rating, with 6% Sucrose Test Average ([2]; 125 ppm in 6% sucrose, scale 6-10 relative to 6-10% sucrose references, mean of four test samples): 8.1 | sweetness intensity of a 6.0% sugar solution increased to the equivalent of ([2]; about 125 ppm in 6.0% sugar solution): about 8.1 % sugar solution | Sweetness Detection Threshold (SDT) (sweet taste [4]; 5 subjects, in water): < 125 ppm | taste (sweet taste [4]; 15.6 ppm solution, all 5 subjects): absence of taste | taste (sweet taste [4]; 31.2 ppm solution, all 5 subjects): absence of taste | taste (sweet taste [4]; 62.5 ppm solution, 3 out of 5 subjects): very faint sweetness | sweetness, sugar equivalent (sweet taste [4]; 125 ppm solution, 4 out of 5 subjects): less than 1 % sugar equivalent | sweetness comparable to that of sucrose (sweet taste [4]; 250 ppm sample, all 5 subjects): ca. 2 % sucrose | equivalent sweetness intensity by itself (sweet taste [4]; about 62 ppm, by itself): < 1 % sugar solution | sweet taste exhibited (sweet taste [3]): exhibit sweet taste | off-taste (sweet taste [3]; 1,000 ppm in water): no off-taste | taste (sweet taste [3]; 1,000 ppm in water): strong sweet taste | sweet taste of the sulfamate by itself (sweet taste [3]; no sugar): very faint sweet taste | taste (sweet taste [3]; ca. 62 ppm in water): weak sweet taste

Compound: sodium 1H-1,3,5-triazolyl sulfamate [sulfamate 1]
sweetness intensity of a 6.0% sugar solution increased to the equivalent of ([2]; about 372 ppm in 6.0% sugar solution): about 7.1 % sugar solution | sweet taste of the sulfamate by itself (sweet taste [3]; no sugar): not sweet by itself

Compound: sodium 1H-thiazolyl sulfamate [sulfamate 5]
sweetness intensity of a 6.0% sugar solution increased to the equivalent of ([2]; about 404 ppm in 6.0% sugar solution): about 6.9 % sugar solution | sweet taste of the sulfamate by itself (sweet taste [3]; no sugar): not sweet by itself
